Laboratory results as given in patent US6423708B1, “Aralkyl and aralkylidene heterocyclic lactams and imides” (Pfizer INC, priority 1996, dated 2002).

Structure (SMILES)	melting point
CN1CCN(c2ccccc2C=C2SCCN(Cc3ccc(Cl)c(Cl)c3)C2=O)CC1.Cl.O.O (hydrate or solvate)	90 to 115 °C
CN1CCN(c2ccccc2C=C2SCCNC2=O)CC1 [Example 10, 2-[2-(4-Methylpiperazin-1-yl)-benzylidene]-thiomorpholin-3-one]	133 to 135 °C
CN1CCN(c2ccccc2C=C2NC(=O)N(c3ccc(Cl)cc3)C2=O)CC1 [Example 2, 3-(4-Chlorophenyl)-5-[2-(4-methylpiperazin-1-yl)-benzylidene]-imidazolidine-2,4-dione]	193 to 193.5 °C
CN1CCN(c2ccccc2C=C2SCCN(Cc3ccccc3)C2=O)CC1 [Example 4, 4-Benzyl-2-[2-(4-methylpiperazin-1-yl)-benzylidene]-thiomorpholin-3-one]	106 to 108 °C
CN1CCN(c2ccccc2C=C2SCCN(c3ccc(C(F)(F)F)cc3)C2=O)CC1.Cl.O.O.O (hydrate or solvate)	128 to 134 °C
CN1CCN(c2ccccc2C=C2SC(=O)N(c3ccc(C(F)(F)F)cc3)C2=O)CC1.Cl.O.O (hydrate or solvate)	159 to 177 °C
CN1CCN(c2ccccc2C=C2OCCN(c3ccc(Cl)c(Cl)c3)C2=O)CC1 [Example 12, 4-(3,4-Dichlorophenyl)-2-[2-(4-methylpiperazin-1-yl)-benzylidene]-morpholin-3-one]	169 to 171 °C (dec.)
CN1CCN(c2cccc(F)c2C=C2SCCN(c3ccc(Cl)c(Cl)c3)C2=O)CC1 [Example 11, 4-(3,4-Dichlorophenyl)-2-[2-fluoro-6-(4-methylpiperazin-1-yl)-benzylidene]-thiomorpholin-3-one]	146 to 147 °C
